From patent US9440950B2, “Arginine methyltransferase inhibitors and uses thereof” (Epizyme, Inc., priority 2013, dated 2016)

Target: T1, human PRMT6 (Homo sapiens, UniProt Q96LA8)
T1 construct: Flag-PRMT6-His; made in house; host or cells: HEK 293F cells (BacMam virus, pFastBacMam)
Assay: PRMT6 Biochemical Assay
Conditions: peptide substrate, 3H-SAM Flashplate assay
Description: S-adenosylmethionine (SAM), S-adenosylhomocysteine (SAH), bicine, Tween20, dimethylsulfoxide (DMSO), bovine skin gelatin (BSG), sodium butyrate and Tris(2-carboxyethyl)phosphine hydrochloride solution (TCEP) were purchased from Sigma-Aldrich at the highest level of purity possible. ^3H-SAM was purchase from American Radiolabeled Chemicals with a specific activity of 80 Ci/mmol. 384-well streptavidin Flashplates were purchased from PerkinElmer.
Peptide representative of human histone H4 residues 36-50 was synthesized with an N-terminal linker-affinity tag motif and a C-terminal amide cap by 21st Century Biochemicals. The peptide was purified by high-performance liquid chromatography (HPLC) to greater than 95% purity and confirmed by liquid chromatography mass spectrometry (LC-MS). The sequence was Biot-Ahx-[…]-amide and contained a monomethylated lysine at position 44 (SEQ ID NO.:5).
Full-length human PRMT6 (NM_018137.2) transcript clone was amplified from an HEK 293 cDNA library, incorporating a flanking 5′ sequence encoding a FLAG tag ([…]) (SEQ ID NO.:6) fused directly to Ser 2 of PRMT6 and a 3′ sequence encoding a hexa His sequence (HHHHHH) fused directly to Asp 375. The amplified gene was subcloned into pFastBacMam (Viva Biotech).
Recombinant baculovirus were generated according to Bac-to-Bac kit instructions (Life Technologies). […] Infections were carried out at 37° C. for 48 hours, harvested by centrifugation, and stored at −80° C. for purification.
Column was washed with 20 mM imidazole in the same buffer and Flag-PRMT6-His was eluted with 150 mM imidazole. Pooled fractions were dialysed against buffer Ni-A and further purified by anti-flag M2 affinity chromatography. Flag-PRMT6-His was eluted with 200 ug/ml FLAG peptide in the same buffer. Pooled fractions were dialysed in 20 mM Tris, 150 mM NaCl, 10% glycerol and 5 mM β-mercaptoethanol, pH 7.8. The purity of recovered protein was 95%.
General Procedure for PRMT6 Enzyme Assays on Peptide Substrates.
The assays were all performed in a buffer consisting of 20 mM Bicine (pH=7.6), 1 mM TCEP, 0.005% BSG, and 0.002% Tween 20, prepared on the day of use. Compounds in 100% DMSO (1 ul) were spotted into a polypropylene 384-well V-bottom plates (Greiner) using a Platemate Plus outfitted with a 384-channel head (Thermo Scientific). DMSO (1 ul) was added to Columns 11, 12, 23, 24, rows A-H for the maximum signal control and 1 ul of SAH, a known product and inhibitor of PRMT6, was added to columns 11, 12, 23, 24, rows I-P for the minimum signal control. A cocktail (40 ul) containing the PRMT6 enzyme was added by Multidrop Combi (Thermo-Fisher). The compounds were allowed to incubate with PRMT6 for 30 min at room temperature, then a cocktail (10 ul) containing SAM and peptide was added to initiate the reaction (final volume=51 ul). The final concentrations of the components were as follows: PRMT6 was 1 nM, ^3H-SAM was 200 nM, non-radiolabeled SAM was 250 nM, peptide was 75 nM, SAH in the minimum signal control wells was 1 mM, and the DMSO concentration was 2%. The assays were stopped by the addition of non-radiolabeled SAM (10 ul) to a final concentration of 400 uM, which dilutes the ^3H-SAM to a level where its incorporation into the peptide substrate is no longer detectable. 50 ul of the reaction in the 384-well polypropylene plate was then transferred to a 384-well Flashplate and the biotinylated peptides were allowed to bind to the streptavidin surface for at least 1 hour before being washed once with 0.1% Tween20 in a Biotek ELx405 plate washer. The plates were then read in a PerkinElmer TopCount plate reader to measure the quantity of ^3H-labeled peptide bound to the Flashplate surface, measured as disintegrations per minute (dpm) or alternatively, referred to as counts per minute (cpm).
Where dpm=disintegrations per minute, cmpd=signal in assay well, and min and max are the respective minimum and maximum signal controls. […]

T1 sequence (Q96LA8 with tags, fused parts or gaps): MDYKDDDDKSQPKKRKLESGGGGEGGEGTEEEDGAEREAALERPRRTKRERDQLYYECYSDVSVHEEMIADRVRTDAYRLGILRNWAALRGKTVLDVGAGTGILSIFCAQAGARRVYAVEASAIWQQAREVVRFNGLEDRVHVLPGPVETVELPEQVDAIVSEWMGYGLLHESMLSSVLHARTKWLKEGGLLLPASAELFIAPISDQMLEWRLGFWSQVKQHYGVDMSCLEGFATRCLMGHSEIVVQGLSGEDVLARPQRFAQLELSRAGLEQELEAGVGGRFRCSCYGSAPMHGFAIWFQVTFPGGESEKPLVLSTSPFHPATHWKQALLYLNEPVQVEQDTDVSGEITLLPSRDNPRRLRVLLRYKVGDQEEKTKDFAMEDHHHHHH

Row | SMILES | IC50 [nM]
1 | CNCCN(C)Cc1c[nH]nc1-c1ccc(O)nc1 [Compound 2] | 1010 to 3000
2 | CN(CCN)Cc1c[nH]nc1-c1ccc(C(F)(F)F)nc1 [Compound 13, N^1-methyl-N^1-((3-(6-(trifluoromethyl)pyridin-3-yl)-1H-pyrazol-4-yl)methyl)ethane-1,2-diamine] | ≤ 100
3 | COc1cc(-c2n[nH]cc2CN(C)CCN)ccn1 [Compound 11] | ≤ 100
4 | CNCCN(C)Cc1c[nH]nc1-c1ccc(OCC(C)C)nc1 [Compound 35, N^1-((3-(6-iso-butoxypyridin-3-yl)-1H-pyrazol-4-yl)methyl)-N^1,N^2-dimethylethane-1,2-diamine] | ≤ 100
5 | CNCCN(C)Cc1c[nH]nc1-c1ccc(N)nc1 [Compound 3] | ≤ 100
6 | CN(CCN)Cc1c[nH]nc1-c1cncc(F)c1 [Compound 7] | ≤ 100
7 | Cc1ccncc1-c1n[nH]cc1CN(C)CCN [Compound 17] | 101 to 1000
8 | COc1ccc(-c2n[nH]cc2CN(C)CCN)cn1 [Compound 5] | ≤ 100
9 | CN(CCN)Cc1c[nH]nc1-c1cncc(S(C)(=O)=O)c1 [Compound 4] | 1010 to 3000
10 | CN(CCN)Cc1c[nH]nc1-c1cncc(Cl)c1 [Compound 19] | ≤ 100
11 | Cc1cncc(-c2n[nH]cc2CN(C)CCN)c1 [Compound 6] | 3010 to 10000
12 | COc1ccncc1-c1n[nH]cc1CN(C)CCN [Compound 16] | 101 to 1000
13 | COc1ncccc1-c1n[nH]cc1CN(C)CCN [Compound 15] | 101 to 1000
14 | CN(CCN)Cc1c[nH]nc1-c1ccncc1 [Compound 9] | ≤ 100
15 | CC(C)CN(C)c1ccc(-c2n[nH]cc2CN(C)CCN)cn1 [Compound 21] | 101 to 1000
16 | COc1ncc(Cl)cc1-c1n[nH]cc1CN(C)CCN [Compound 14] | 1010 to 3000
17 | CN(CCN)Cc1c[nH]nc1-c1cncc(C#N)c1 [Compound 18] | 101 to 1000
18 | Cc1cc(-c2n[nH]cc2CN(C)CCN)cnc1Cl [Compound 10] | ≤ 100
19 | CN(CCN)Cc1c[nH]nc1-c1cccnc1 [Compound 8] | ≤ 100
20 | CN(CCN)Cc1c[nH]nc1-c1ccc(N2CCOCC2)nc1 [Compound 20] | 101 to 1000
21 | COc1cc(-c2n[nH]cc2CN(C)CCN)c(Cl)cn1 [Compound 12] | 101 to 1000
22 | CNCCN(C)Cc1c[nH]nc1-c1cccnc1 [Compound 1] | ≤ 100

Further lines, results first:

Row | IC50 [nM] | SMILES
23 | 101 to 1000 | CN(CCN)Cc1c[nH]nc1-c1cnccc1C(F)(F)F [Compound 29]
24 | 1010 to 3000 | CCN(CC(C)C)c1ccc(-c2n[nH]cc2CN(C)CCNC)cn1 [Compound 36]
25 | ≤ 100 | CC(C)Oc1ccc(-c2n[nH]cc2CN(C)CCN)cn1 [Compound 22]
26 | 1010 to 3000 | CNCCN(C)Cc1c[nH]nc1-c1ccc(N(CC(C)C)CC(C)C)nc1 [Compound 31]
27 | ≤ 100 | CN(CCN)Cc1c[nH]nc1-c1ccc(NCc2ccccc2)nc1 [Compound 25]
28 | 101 to 1000 | CNCCN(C)Cc1c[nH]nc1-c1ccc(N(C)C(C)C)nc1 [Compound 33, N^1-((3-(6-(isopropyl(methyl)amino)pyridin-3-yl)-1H-pyrazol-4-yl)methyl)-N^1,N^2-dimethylethane-1,2-diamine]
29 | 101 to 1000 | CCN(CC)c1ccc(-c2n[nH]cc2CN(C)CCN)cn1 [Compound 24]
30 | ≤ 100 | CN(CCN)Cc1c[nH]nc1-c1ccc(N(C)Cc2ccccc2)nc1 [Compound 23]
31 | 101 to 1000 | CCN(CCC(C)C)c1ccc(-c2n[nH]cc2CN(C)CCNC)cn1 [Compound 34, N^1-((3-(6-(ethyl(isopentyl)amino)pyridin-3-yl)-1H-pyrazol-4-yl)methyl)-N^1,N^2-dimethylethane-1,2-diamine]
32 | 3010 to 10000 | CN(CCN)Cc1c[nH]nc1-c1ccccn1 [Compound 27]
33 | ≤ 100 | CN(CCN)Cc1c[nH]nc1-c1ccc(C#N)nc1 [Compound 28, 5-(4-(((2-aminoethyl)(methyl)amino)methyl)-1H-pyrazol-3-yl)picolinonitrile]
34 | 101 to 1000 | CNCCN(C)Cc1c[nH]nc1-c1ccc(N(C)CC(C)C)nc1 [Compound 32, N^1-((3-(6-(isobutyl(methyl)amino)pyridin-3-yl)-1H-pyrazol-4-yl)methyl)-N^1,N^2-dimethylethane-1,2-diamine]
35 | ≤ 100 | CNCCN(C)Cc1c[nH]nc1-c1ccc(N(C)CCC(C)C)nc1 [Compound 30]
36 | ≤ 100 | CC(C)CNc1ccc(-c2n[nH]cc2CN(C)CCN)cn1 [Compound 26]
